Here are results for 16 molecules from patent US11440899B2, “Pyrimidine TBK/IKKe inhibitor compounds and uses thereof” (Merck Patent GmbH, priority 2017, dated 2022).

For one test, the target named is TBK1 (Homo sapiens (Human), UniProt Q9UHD2). Briefly: TBK Biochemical Assay. The essentials: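 Enzyme and substrate with compound (10-point 1:4 series, top 30 uM final, 1% DMSO) incubated 90 min at 25 °C, then stopped; substrate/product separated and read by LabChip mobility-shift, staurosporine 10 uM final as full-inhibition control.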
The target of another test is IKKe (Homo sapiens (Human), UniProt Q14164). Briefly: IKKe Biochemical Assay. In a few lines: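 Human IKKε activity was measured with compounds in a 10-point 1:4 dilution series, top concentration 30 uM final, in 1% DMSO final; 10 uM staurosporine served as the control. Enzyme and substrate were incubated 90 min at 25° C, then stopped, and substrate/product peaks were separated by microfluidic mobility-shift on a LabChip EZ Reader II.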

Counter-ions that a name gives are not always drawn. Some results are limits rather than exact numbers.

IKKe, sequence (Q14164 whole entry, species assumed): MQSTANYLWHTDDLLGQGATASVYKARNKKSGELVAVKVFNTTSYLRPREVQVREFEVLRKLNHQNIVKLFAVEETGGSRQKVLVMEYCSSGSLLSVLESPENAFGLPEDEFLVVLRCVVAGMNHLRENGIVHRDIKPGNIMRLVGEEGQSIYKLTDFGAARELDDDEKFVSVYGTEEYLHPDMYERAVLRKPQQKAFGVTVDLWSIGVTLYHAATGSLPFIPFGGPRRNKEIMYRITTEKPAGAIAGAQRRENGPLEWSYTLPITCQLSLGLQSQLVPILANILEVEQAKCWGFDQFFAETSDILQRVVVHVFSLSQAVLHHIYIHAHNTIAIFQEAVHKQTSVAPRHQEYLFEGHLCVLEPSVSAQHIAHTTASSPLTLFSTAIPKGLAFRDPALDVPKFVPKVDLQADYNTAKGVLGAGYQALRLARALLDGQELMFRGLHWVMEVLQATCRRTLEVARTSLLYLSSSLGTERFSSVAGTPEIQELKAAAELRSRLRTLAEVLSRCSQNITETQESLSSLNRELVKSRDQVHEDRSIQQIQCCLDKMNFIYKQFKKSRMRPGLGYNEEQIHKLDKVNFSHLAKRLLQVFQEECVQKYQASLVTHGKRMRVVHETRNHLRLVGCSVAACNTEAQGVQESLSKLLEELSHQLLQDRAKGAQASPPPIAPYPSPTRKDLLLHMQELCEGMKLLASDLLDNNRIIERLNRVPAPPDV
TBK1, sequence (Q9UHD2 whole entry, species assumed): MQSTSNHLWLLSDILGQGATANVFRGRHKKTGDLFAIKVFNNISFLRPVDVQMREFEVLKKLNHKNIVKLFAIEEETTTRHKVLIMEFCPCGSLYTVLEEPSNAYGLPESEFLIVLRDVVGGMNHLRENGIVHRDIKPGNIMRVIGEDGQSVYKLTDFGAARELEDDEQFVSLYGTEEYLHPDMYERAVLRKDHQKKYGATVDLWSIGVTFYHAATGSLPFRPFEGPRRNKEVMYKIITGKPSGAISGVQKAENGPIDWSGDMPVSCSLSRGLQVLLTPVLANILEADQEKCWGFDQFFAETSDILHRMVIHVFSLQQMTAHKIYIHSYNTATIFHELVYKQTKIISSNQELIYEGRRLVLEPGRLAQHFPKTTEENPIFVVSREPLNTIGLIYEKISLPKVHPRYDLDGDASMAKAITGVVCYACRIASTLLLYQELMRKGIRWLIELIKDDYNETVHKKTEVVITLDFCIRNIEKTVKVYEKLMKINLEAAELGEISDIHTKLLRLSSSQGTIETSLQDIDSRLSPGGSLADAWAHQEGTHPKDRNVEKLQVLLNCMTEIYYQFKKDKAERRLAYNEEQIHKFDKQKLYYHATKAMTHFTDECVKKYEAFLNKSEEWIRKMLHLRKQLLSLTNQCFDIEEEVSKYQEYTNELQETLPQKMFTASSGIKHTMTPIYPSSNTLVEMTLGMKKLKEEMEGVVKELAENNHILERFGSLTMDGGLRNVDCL

As a reminder, the IC50 is the concentration that inhibits the measured activity by half. A low value points to inhibition by little substance. For the molecule `COc1nc(Nc2cc(-c3ccc(OC4CCNCC4(F)F)c(C#N)c3)ncn2)ccc1N1CCN(C)C[C@H]1C` (stereo partly drawn) [Example 64, 2-[(3,3-difluoropiperidin-4-yl)oxy]-5-[6-({5-[(2R)-2,4-dimethylpiperazin-1-yl]-6-methoxypyridin-2-yl}amino)pyrimidin-4-yl]benzonitrile], the IC50 at TBK1 and against IKKe was less than 0.1 µM in each case.

For the molecule `COc1nc(Nc2cc(-c3ccc(OC4CCN(C(=O)[C@H](C)O)CC4(F)F)c(C#N)c3)ncn2)ccc1N1CCN(C)C[C@H]1C` (stereo partly drawn) [Example 65, 2-([3,3-difluoro-1-[(2S)-2-hydroxypropanoyl]piperidin-4-yl]oxy)-5-[6-([5-[(2R)-2,4-dimethylpiperazin-1-yl]-6-methoxypyridin-2-yl]amino)pyrimidin-4-yl]benzonitrile hydrochloride], the IC50 against TBK1 and against IKKe was less than 0.1 µM in each case.

Regarding `COc1nc(Nc2cc(-c3ccc(OC4CCN(C(=O)[C@@H](C)O)CC4(F)F)c(C#N)c3)ncn2)ccc1N1CCN(C)C[C@H]1C` (stereo partly drawn) [Example 66, 2-([3,3-difluoro-1-[(2R)-2-hydroxypropanoyl]piperidin-4-yl]oxy)-5-[6-([5-[(2R)-2,4-dimethylpiperazin-1-yl]-6-methoxypyridin-2-yl]amino)pyrimidin-4-yl]benzonitrile hydrochloride], the IC50 on TBK1 and against IKKe was less than 0.1 µM throughout.

As for `COc1nc(Nc2cc(-c3ccc(OC4CCNCC4(F)F)c(C#N)c3)ncn2)ccc1N1CCN(C2COC2)C[C@@H]1C` (stereo partly drawn) [Example 67, 2-[(3,3-difluoropiperidin-4-yl)oxy]-5-[6-({6-methoxy-5-[(2S)-2-methyl-4-(oxetan-3-yl)piperazin-1-yl]pyridin-2-yl}amino)pyrimidin-4-yl]benzonitrile], the IC50 against TBK1 and on IKKe was less than 0.1 µM throughout.

In the case of `COc1nc(Nc2cc(-c3ccc(OC4CCN(C(=O)[C@@H](C)O)CC4(F)F)c(C#N)c3)ncn2)ccc1N1CCN(C2COC2)C[C@@H]1C` (stereo partly drawn) [Example 68, 2-([3,3-difluoro-1-[(2R)-2-hydroxypropanoyl]piperidin-4-yl]oxy)-5-[6-([6-methoxy-5-[(2S)-2-methyl-4-(oxetan-3-yl)piperazin-1-yl]pyridin-2-yl]amino)pyrimidin-4-yl]benzonitrile], the IC50 against TBK1 and on IKKe was less than 0.1 µM in each case.

Take `COc1nc(Nc2cc(-c3ccc(OC4CCNCC4(F)F)c(C#N)c3)ncn2)ccc1N1CCN(C2COC2)C[C@H]1C` (stereo partly drawn) [Example 69, 2-[(3,3-difluoropiperidin-4-yl)oxy]-5-[6-({6-methoxy-5-[(2R)-2-methyl-4-(oxetan-3-yl)piperazin-1-yl]pyridin-2-yl}amino)pyrimidin-4-yl]benzonitrile]: the IC50 against TBK1 and against IKKe was less than 0.1 µM each time.

Consider `COc1nc(Nc2cc(-c3ccc(OC4CCN(C(=O)[C@@H](C)O)CC4(F)F)c(C#N)c3)ncn2)ccc1N1CCN(C2COC2)C[C@H]1C` (stereo partly drawn) [Example 70, 2-([3,3-difluoro-1-[(2R)-2-hydroxypropanoyl]piperidin-4-yl]oxy)-5-[6-([6-methoxy-5-[(2R)-2-methyl-4-(oxetan-3-yl)piperazin-1-yl]pyridin-2-yl]amino)pyrimidin-4-yl]benzonitrile], for which the IC50 against TBK1 and against IKKe was less than 0.1 µM throughout.

With `COc1nc(Nc2cc(-c3ccc(OC4CCN(C(=O)[C@H](C)O)CC4(F)F)c(C#N)c3)ncn2)ccc1N1CCN(C2COC2)C[C@H]1C` (stereo partly drawn) [Example 71, 2-([3,3-difluoro-1-[(2S)-2-hydroxypropanoyl]piperidin-4-yl]oxy)-5-[6-([6-methoxy-5-[(2R)-2-methyl-4-(oxetan-3-yl)piperazin-1-yl]pyridin-2-yl]amino)pyrimidin-4-yl]benzonitrile], the IC50 against TBK1 and on IKKe was less than 0.1 µM each time.

As to `COc1nc(Nc2cc(-c3ccc(OC4CCN(C(=O)[C@H](C)O)CC4(F)F)c(C#N)c3)ncn2)ccc1N1CCN(C2COC2)C[C@@H]1C` (stereo partly drawn) [Example 72, 2-([3,3-difluoro-1-[(2S)-2-hydroxypropanoyl]piperidin-4-yl]oxy)-5-[6-([6-methoxy-5-[(2S)-2-methyl-4-(oxetan-3-yl)piperazin-1-yl]pyridin-2-yl]amino)pyrimidin-4-yl]benzonitrile], the half-maximal inhibitory concentration (IC50) against TBK1 and at IKKe was less than 0.1 µM in each case.

For `COc1nc(Nc2cc(-c3ccc(OC4CCNCC4(F)F)c(C#N)c3)ncn2)ccc1N1CCN(C)[C@H](C)C1` (stereo partly drawn) [Example 73, 2-[(3,3-difluoropiperidin-4-yl)oxy]-5-[6-({5-[(3R)-3,4-dimethylpiperazin-1-yl]-6-methoxypyridin-2-yl}amino)pyrimidin-4-yl]benzonitrile], the IC50 at TBK1 and on IKKe was less than 0.1 µM each time.

On to `COc1nc(Nc2cc(-c3ccc(OC4CCN(C(=O)[C@H](C)O)CC4(F)F)c(C#N)c3)ncn2)ccc1N1CCN(C)[C@H](C)C1` (stereo partly drawn) [Example 74, 2-([3,3-difluoro-1-[(2S)-2-hydroxypropanoyl]piperidin-4-yl]oxy)-5-[6-([5-[(3R)-3,4-dimethylpiperazin-1-yl]-6-methoxypyridin-2-yl]amino)pyrimidin-4-yl]benzonitrile hydrochloride], for which the IC50 against TBK1 and on IKKe was less than 0.1 µM throughout.

Turning to `COc1nc(Nc2cc(-c3ccc(OC4CCN(C(=O)[C@@H](C)O)CC4(F)F)c(C#N)c3)ncn2)ccc1N1CCN(C)[C@H](C)C1` (stereo partly drawn) [Example 75, 2-([3,3-difluoro-1-[(2R)-2-hydroxypropanoyl]piperidin-4-yl]oxy)-5-[6-([5-[(3R)-3,4-dimethylpiperazin-1-yl]-6-methoxypyridin-2-yl]amino)pyrimidin-4-yl]benzonitrile hydrochloride], the IC50 on TBK1 and against IKKe was less than 0.1 µM each time.

For `COc1nc(Nc2cc(-c3ccc(OC4CCNCC4(F)F)c(C#N)c3)ncn2)ccc1N1CCN(C2COC2)CC1` (centres unmarked) [Example 76, 2-[(3,3-difluoropiperidin-4-yl)oxy]-5-[6-({6-methoxy-5-[4-(oxetan-3-yl)piperazin-1-yl]pyridin-2-yl}amino)pyrimidin-4-yl]benzonitrile], the IC50 against TBK1 and against IKKe was less than 0.1 µM throughout.

Regarding `COc1nc(Nc2cc(-c3ccc(OC4CCN(C(=O)[C@@H](C)O)CC4(F)F)c(C#N)c3)ncn2)ccc1N1CCN(C2COC2)CC1` (stereo partly drawn) [Example 77, 2-([3,3-difluoro-1-[(2R)-2-hydroxypropanoyl]piperidin-4-yl]oxy)-5-[6-([6-methoxy-5-[4-(oxetan-3-yl)piperazin-1-yl]pyridin-2-yl]amino)pyrimidin-4-yl]benzonitrile], the IC50 against TBK1 and on IKKe was less than 0.1 µM each time.

With `COc1nc(Nc2cc(-c3ccc(OC4CCN(C(=O)[C@H](C)O)CC4(F)F)c(C#N)c3)ncn2)ccc1N1CCN(C2COC2)CC1` (stereo partly drawn) [Example 78, 2-([3,3-difluoro-1-[(2S)-2-hydroxypropanoyl]piperidin-4-yl]oxy)-5-[6-([6-methoxy-5-[4-(oxetan-3-yl)piperazin-1-yl]pyridin-2-yl]amino)pyrimidin-4-yl]benzonitrile], the IC50 on TBK1 and on IKKe was less than 0.1 µM each time.

In the case of `COc1nc(Nc2cc(-c3ccc(O[C@H]4CCN(C(=O)c5cnn[nH]5)C[C@H]4F)c(C#N)c3)ncn2)ccc1N1CCN(C2COC2)CC1` [Example 79, 2-[[(3R,4S)-3-fluoro-1-[(1H-1,2,3-triazol-5-yl)carbonyl]piperidin-4-yl]oxy]-5-[6-([6-methoxy-5-[4-(oxetan-3-yl)piperazin-1-yl]pyridin-2-yl]amino)pyrimidin-4-yl]benzonitrile], the IC50 on TBK1 and against IKKe was less than 0.1 µM each time.
